{"source": "patent US20250161313A1", "about": "“A METHOD FOR THE TREATMENT OF NEUROPATHY” (INSTITUT NATIONAL DE LA SANTÉ ET DE LA RECHERCHE MÉDICALE, priority 2022, published 2025)", "key": {"C57B16/J mice [1]": {"system": "C57B16/J mice", "assay": "Mechanical pain sensitivity (von Frey filaments) in sub-chronic cisplatin model", "assay_type": "in vivo", "conditions": "KW-6002 3 mg/kg i.p. daily day -5 to day 7; cisplatin 3 mg/kg i.p. for 6 days; vs. cisplatin; FIG. 1A", "method": "(§1) Animal experiments were adapted from 63-64. Animal procedures were performed in 8 to 10 weeks old male C57B16/J mice (Janvier Labs except for pain experiments, Jackson lab). Mice were fed a laboratory standard diet with water and food ad libitum and were kept under constant environmental conditions with a 12-hour light-dark cycle. Istradefylline (KW-6002; Tocris) was dissolved in a carrier solution consisting in 15% DMSO, 15% cremophor (Sigma), 70% saline solution (vehicle). Cisplatin (Accord Healthcare) was dissolved in saline solution. Neuropathy resulting from of sub-chronic cisplatin was evaluated following six daily i.p. injections of cisplatin (3 mg/kg) starting at day 0 and mice were sacrificed 72h after the last injection of cisplatin (day 8). KW-6002 was administered daily i.p. from day −5 to day 7 (FIG. 2).\n(§2) Mechanical pain sensitivity, a classical read out for CIPN in rodents, was assessed using von Frey filaments as previously described (65-66). Briefly, mice were placed in opaque boxes (10×10×10 cm). After a 30 min habituation period, von Frey filaments were applied, and the paw withdrawal threshold was calculated using the “up & down” method. Behavioral testing was performed by experimenter blinded to treatment and genotype."}, "[2]": {"system": "Il6, Tnf, Il1b and Ccl2 expression in DRG and spinal cord", "assay": "mRNA levels of cytokines in spinal cord and DRG (quantitative RT-PCR), sub-chronic cisplatin model", "assay_type": "in vivo, mice", "conditions": "8 days after start of cisplatin treatment, vs. cisplatin", "method": "as §1\nLumbar dorsal root ganglion (DRG) and spinal cord tissues were quickly dissected and snap-frozen in liquid nitrogen.\nFor DRG and spinal cord tissues, total RNA was extracted with phenol/chloroform and subsequently precipitated in isopropanol as described previously (71).\n(§3) Reverse transcription was performed on 1 μg of RNA using high-capacity cDNA reverse transcription kit (Thermo Fisher), according the manufacturer's recommendation. Real time PCR was performed on a StepOne device using Taqman Gene Expression Master Mix (Thermo Fisher), following manufacturer's recommendations. Expression levels of the following genes were evaluated using comparative CT method (2-deltaCT): Tumor Necrosis Factor alpha (Tnfa, Assay ID Mm00443258_m1), Interleukin-6 (Il6, Assay ID Mm00446190_m1), Il1b (assay ID Mm00434228_m1); chemokine (C-C motif) ligand 2 (Ccl2, assay ID Mm00441242_m1). Transcript levels of PPIA (Mm02342430_m1) were used as endogenous control."}, "[3]": {"system": "KIM-1, Tnf and Il6 expression", "assay": "Cisplatin-induced nephrotoxicity markers (mRNA) in mEERL tumor-bearing mice", "assay_type": "in vivo", "conditions": "cisplatin plus KW6002 vs. cisplatin", "method": "(§4) We used a validated murine model of HPV+ oropharyngeal squamous cell carcinoma as previously described (noncommercial) (80). This model consists of oropharyngeal epithelial cells from C57Bl/6 male mice that stably express the HPV16 viral oncogenes E6 and E7, H-Ras, and luciferase (mEERL cells). mEERL cells were grown in a T75 flask until confluent, after which cells were trypsinized and harvested, washed 3 times with sterile PBS, and resuspended in 1 mL sterile PBS to the appropriate concentration. Mice were injected s.c. into the right flank with 20 μL solution containing either 1,000,000 mEERL cells or PBS (vehicle). The day of mEERL cell injection is indicated as day −14. Tumor volume was monitored using Vernier digital calipers. When the tumor volume reached 100 mm3, the mice were randomly ascribed to 1 of the 3 experimental groups (vehicle; cisplatin; or cisplatin plus KW6002).\nas §3"}, "C57B16/J mice [4]": {"system": "C57B16/J mice", "assay": "Mechanical sensitivity (von Frey hairs) in mEERL tumor-bearing mice", "assay_type": "in vivo", "conditions": "cisplatin plus KW6002 vs. cisplatin, FIG. 3D", "method": "as §4, §2"}, "mEERL cells": {"system": "mEERL cells", "assay": "Tumor size in mEERL syngeneic in vivo tumor model", "conditions": "mEERL tumor-bearing mice; cisplatin plus KW6002 vs. cisplatin; FIG. 3E", "method": "as §4"}}}
{"smiles": "CCn1c(=O)c2c(nc(/C=C/c3ccc(OC)c(OC)c3)n2C)n(CC)c1=O", "note": "[KW-6002, 8-[(E)-2-(3,4-dimethoxyphenyl)vinyl]-1,3-diethyl-7-methyl-3,7-dihydro-1H-purine-2,6-dione]", "values": [{"measurement": "cisplatin-induced pain hypersensitivity (mechanical sensitivity, von Frey)", "setting": "C57B16/J mice [1]", "result": "significantly mitigated pain hypersensitivity"}, {"measurement": "Tnf mRNA level in spinal cord", "setting": "[2]; KW-6002 3 mg/kg, FIG. 1C", "result": "significantly downregulated"}, {"measurement": "Il6 mRNA level in DRG", "setting": "[2]; KW-6002 3 mg/kg, FIG. 1D", "result": "significantly downregulated"}, {"measurement": "Tnf mRNA level in DRG", "setting": "[2]; KW-6002 3 mg/kg, FIG. 1E", "result": "significantly downregulated"}, {"measurement": "Il 1b mRNA level in DRG", "setting": "[2]; FIG. 1F", "result": "significantly reversed the upregulation"}, {"measurement": "Ccl2 mRNA level in DRG", "setting": "[2]; FIG. 1G", "result": "significantly reversed the upregulation"}, {"measurement": "indicator of renal toxicity KIM-1 (mRNA) induced by cisplatin", "setting": "[3]; FIG. 3A", "result": "limited"}, {"measurement": "expression of inflammatory cytokine Tnf induced by cisplatin", "setting": "[3]; FIG. 3B", "result": "limited"}, {"measurement": "expression of inflammatory cytokine Il6 induced by cisplatin", "setting": "[3]; FIG. 3C", "result": "limited"}, {"measurement": "cisplatin-induced pain hypersensitivity (von Frey)", "setting": "C57B16/J mice [4]", "result": "alleviated"}, {"measurement": "tumor control by cisplatin (absolute tumor size)", "setting": "mEERL cells", "result": "significantly potentiated"}]}
